ChEMBL document CHEMBL1201862, “PubChem BioAssay data set” (2004)
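96-well plates; 48 h exposure; 5 concentrations. Endpoints by linear interpolation between flanking doses. Not reached: highest tested concentration assigned. GI50: concentration for 50% inhibition of growth.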 Activity calls are given as the source filed them. No stated cut-off is given here; in the data, active = GI50 up to about 1.1 µM and inactive = higher. Non-standard residues stand in square brackets, D forms with d. Residues, ends and D or L forms follow the SMILES beside them. ξ: configuration not given here. ξLac(3-iPr) = CC(C)CC(O)C(=O)O; NMeV = CN[CH](C(=O)O)C(C)C; NMeA = CN[CH](C)C(=O)O; βAla = NCCC(=O)O

Columns and labels:
Experiment in all cases: NCI anticancer screen, dose series, 48 h
SF-295 = tested on: SF-295
SF-539 = tested on: SF-539
SF-268 = tested on: SF-268
COLO 205 = tested on: COLO 205
SK-MEL-28 = tested on: SK-MEL-28
SK-MEL-2 = tested on: SK-MEL-2
NCI-H522 = tested on: NCI-H522
NCI-H226 = tested on: NCI-H226
MOLT-4 = tested on: MOLT-4
HCT-15 = tested on: HCT-15
DLD-1 = tested on: DLD-1
LXFL 529 = tested on: LXFL 529
CAKI-1 = tested on: CAKI-1
Malme-3M = tested on: Malme-3M
M19-MEL = tested on: M19-MEL
SR = tested on: SR
HCT-116 = tested on: HCT-116
PC-3 = tested on: PC-3
Hs-578T = tested on: Hs-578T
NCI/ADR-RES = tested on: NCI/ADR-RES

SMILES | GI50 (SF-295) | GI50 (SF-539) | GI50 (SF-268) | GI50 (COLO 205) | GI50 (SK-MEL-28) | GI50 (SK-MEL-2) | GI50 (NCI-H522) | GI50 (NCI-H226) | GI50 (MOLT-4) | GI50 (HCT-15) [µM] | GI50 (DLD-1) | GI50 (LXFL 529) | GI50 (CAKI-1) | GI50 (Malme-3M) | GI50 (M19-MEL) | GI50 (SR) | GI50 (HCT-116) | GI50 (PC-3) | GI50 (Hs-578T) | GI50 (NCI/ADR-RES)
CC(NS(=O)(=O)c1ccc([N+](=O)[O-])cc1)C(=O)O (configuration not stated) | > 100 µM (inactive) | > 100 µM (inactive) | > 100 µM (inactive) | > 100 µM (inactive) | > 100 µM (inactive) | > 100 µM (inactive) | > 100 µM (inactive) | > 100 µM (inactive) | > 100 µM (inactive) | > 100 | > 100 µM (inactive) | > 100 µM (inactive) | > 100 µM (inactive) | > 100 µM (inactive) | – | – | – | – | – | –
COC(=O)CC1C(=O)OCc2c1cc1n(c2=O)Cc2c-1nc1ccccc1c2OC (configuration not stated) | – | – | 19.3 µM (inactive) | > 100 µM (inactive) | > 100 µM (inactive) | > 100 µM (inactive) | 25.8 µM (inactive) | – | 3.93 µM (inactive) | > 100 | – | > 100 µM (inactive) | 4.51 µM (inactive) | > 100 µM (inactive) | 69.7 µM (inactive) | 6.05 µM (inactive) | 13.4 µM (inactive) | – | – | –
N#CSCc1nc2ccc(Cl)cc2c(-c2ccccc2)[n+]1[O-] | 35.2 µM (inactive) | > 10 µM (inactive) | 25.7 µM (inactive) | 60.1 µM (inactive) | 14.5 µM (inactive) | 20.1 µM (inactive) | – | 33.7 µM (inactive) | 14.6 µM (inactive) | 17.3 | – | 13.9 µM (inactive) | 25.8 µM (inactive) | 24.6 µM (inactive) | 31.8 µM (inactive) | 24.9 µM (inactive) | 19.7 µM (inactive) | – | – | –
COc1ccc(/C=C/c2cc(OC)c(OC)c(OC)c2)cc1OC | 65.2 µM (inactive) | > 86.1 µM (inactive) | > 67.9 µM (inactive) | > 100 µM (inactive) | 55.6 µM (inactive) | > 100 µM (inactive) | 68.5 µM (inactive) | > 100 µM (inactive) | > 100 µM (inactive) | > 56.2 | 81.5 µM (inactive) | 78.9 µM (inactive) | > 83.6 µM (inactive) | > 100 µM (inactive) | – | > 100 µM (inactive) | > 100 µM (inactive) | – | – | –
COc1cc(C2SC(=N)Nc3c2c(C)nn3C(=O)c2ccc(Cl)cc2)ccc1O (configuration not stated) | > 10 µM (inactive) | > 10 µM (inactive) | > 10 µM (inactive) | > 10 µM (inactive) | > 10 µM (inactive) | > 10 µM (inactive) | > 10 µM (inactive) | > 10 µM (inactive) | > 10 µM (inactive) | > 10 | – | – | > 10 µM (inactive) | > 10 µM (inactive) | – | > 10 µM (inactive) | > 10 µM (inactive) | > 10 µM (inactive) | > 10 µM (inactive) | > 10 µM (inactive)
COC(=O)CC(=O)OC | > 100 µM (inactive) | > 100 µM (inactive) | > 100 µM (inactive) | > 100 µM (inactive) | – | > 100 µM (inactive) | – | – | > 100 µM (inactive) | > 100 | > 100 µM (inactive) | > 100 µM (inactive) | > 100 µM (inactive) | > 100 µM (inactive) | > 100 µM (inactive) | – | > 100 µM (inactive) | – | – | –
CCCCNS(=O)(=O)c1n[nH]c(=O)[nH]c1=O | 16.9 µM (inactive) | > 100 µM (inactive) | > 100 µM (inactive) | > 100 µM (inactive) | > 100 µM (inactive) | > 100 µM (inactive) | > 100 µM (inactive) | > 100 µM (inactive) | > 100 µM (inactive) | > 100 | – | – | > 100 µM (inactive) | > 100 µM (inactive) | – | > 100 µM (inactive) | > 100 µM (inactive) | > 100 µM (inactive) | > 100 µM (inactive) | > 100 µM (inactive)
CC1Cc2cc(O)c(O)cc2-c2cc(O)c(O)cc2CC1C (configuration not stated) | 4.41 µM (inactive) | 5.85 µM (inactive) | 25.9 µM (inactive) | 17.8 µM (inactive) | 11.9 µM (inactive) | 4.32 µM (inactive) | 9.57 µM (inactive) | 24.3 µM (inactive) | 14 µM (inactive) | 9.29 | – | – | 17.8 µM (inactive) | 5.62 µM (inactive) | – | 4.85 µM (inactive) | 17.9 µM (inactive) | 19.3 µM (inactive) | 9.04 µM (inactive) | 12.6 µM (inactive)
CCCN(CCC)C(=O)c1c([N+](=O)[O-])cc(C(F)(F)F)cc1[N+](=O)[O-] | 34.4 µM (inactive) | 41.6 µM (inactive) | > 100 µM (inactive) | 15.4 µM (inactive) | > 100 µM (inactive) | 39.4 µM (inactive) | 23.2 µM (inactive) | 19.3 µM (inactive) | 52.6 µM (inactive) | 27 | – | 30.4 µM (inactive) | 60.7 µM (inactive) | – | 13.7 µM (inactive) | 51.3 µM (inactive) | 30.5 µM (inactive) | – | – | –
CCc1cccc(NC(=O)c2cc(/C=C/c3ccccc3)nc(S)n2)c1 | > 100 µM (inactive) | > 100 µM (inactive) | > 100 µM (inactive) | > 100 µM (inactive) | > 100 µM (inactive) | > 100 µM (inactive) | > 100 µM (inactive) | > 100 µM (inactive) | > 100 µM (inactive) | > 100 | – | > 100 µM (inactive) | – | > 100 µM (inactive) | > 100 µM (inactive) | > 100 µM (inactive) | > 100 µM (inactive) | – | – | –
C[C@H]1C(=O)CC[C@]2(C)CCC(C(C)(C)O)CC12O (some centres not stated) | > 100 µM (inactive) | > 100 µM (inactive) | > 100 µM (inactive) | > 100 µM (inactive) | > 100 µM (inactive) | > 100 µM (inactive) | > 100 µM (inactive) | > 100 µM (inactive) | > 100 µM (inactive) | > 100 | > 100 µM (inactive) | > 100 µM (inactive) | > 100 µM (inactive) | > 100 µM (inactive) | – | > 100 µM (inactive) | > 100 µM (inactive) | – | – | –
C[N+](C)(C)CCCCCc1c2nc(c(CCCCC[N+](C)(C)C)c3ccc([nH]3)c(CCCCC[N+](C)(C)C)c3nc(c(CCCCC[N+](C)(C)C)c4ccc1[nH]4)C=C3)C=C2 | > 100 µM (inactive) | > 100 µM (inactive) | > 100 µM (inactive) | > 100 µM (inactive) | > 100 µM (inactive) | > 100 µM (inactive) | > 100 µM (inactive) | > 100 µM (inactive) | > 100 µM (inactive) | > 100 | – | – | > 100 µM (inactive) | > 100 µM (inactive) | – | > 100 µM (inactive) | > 100 µM (inactive) | > 100 µM (inactive) | 56 µM (inactive) | > 100 µM (inactive)
CCC(C)C1NC(=O)C2CCCN2C(=O)C(CC(C)C)OC(=O)CCNC(=O)C(C)N(C)C(=O)C(C(C)C)N(C)C1=O (configuration not stated) (cyclo([ξLac(3-iPr)]PI[NMeV][NMeA][βAla]); configuration not given here) | 2.5 µM (inactive) | 7.1 µM (inactive) | 6 µM (inactive) | 3.61 µM (inactive) | 36.1 µM (inactive) | 2.42 µM (inactive) | 6.05 µM (inactive) | > 21.5 µM (inactive) | 1.83 µM (inactive) | 4.57 | – | – | 6.95 µM (inactive) | 6.55 µM (inactive) | – | 0.766 µM (active) | 2.2 µM (inactive) | 1.79 µM (inactive) | 23.2 µM (inactive) | 16.1 µM (inactive)
